Reference: patent US5068247A, “2-aminopentanoic acid compounds and their use as immunosuppressants” (priority 1989, dated 1991)
Where two headings read alike, the source gives them in different places.

Assays:
[1] = tested on: allo-reactive cytotoxic T cell (EL4 target cells); experiment: suppression of induction of allo-reactive cytotoxic T cell in mouse allogenic mixed lymphocyte culture (MLC), 51Cr release; format: cell-based
Description: The target cells used were leukemia cells EL4 from the syngenic (H-2^b) C57BL/6 mouse as used for preparation of the stimulator cells. By incubating 10^6 EL4 cells in the presence of 370 KBq of Na2^51 CrO4 at 37° C. for 1 hour, ^51 Cr was incorporated into the cytoplasm. The cells were washed, adjusted to the concentration of 10^4 cells/ml and used as the target cells.
For the assay of the cytotoxic activity, 100 μl of the effector cell suspension and 100 μl of the target cell suspension were added to a 96-well flat-bottomed microculture plate, and cultured at 37° C. for 4 hours. The amount of ^51 Cr released into the supernatant was determined and the cytotoxic activity was calculated by the following formula. [formula]
The activity of the cytotoxic T cell is expressed by LU (lytic unit) per 10^6 effector cells.

[2] = tested on: IL-2 production in PHA-stimulated mouse spleen cells; experiment: suppression of IL-2 production in PHA-stimulated mouse spleen cells; format: cell-based; conditions: for inhibition at 0.001 µg/mL / inhibition at 0.01 µg/mL / inhibition at 0.1 µg/mL / inhibition at 1 µg/mL: Mus musculus, 24 h, read-out: Suppression
Description: (§1) The suppression of IL-2 and IL-3 production in the mitogen-stimulated mouse spleen cells was examined as follows:
(§2) The spleen was resected from 5- to 8-week-old male C3H/HeN mice, and a single cell suspension of spleen cells was prepared by using the RPMI1640 culture medium. After hemolytic treatment, the concentration of the suspension was adjusted to 10^7 cells/ml by using the RPMI1640 culture medium supplemented with 20% FCS, to which 10 μg/ml of phytohemagglutinin (PHA) was added as mitogen. […] After termination of culture, the supernatant was collected and used as the culture supernatant of PHA-stimulated mouse spleen cells.
The IL-2 activity in the culture supernatant of PHA-stimulated mouse spleen cells was assayed as follows:
IL-2 dependent mouse cell line CTLL-2 cells were suspended in the RPMI1640 culture medium supplemented with 30% FCS to the concentration of 2×10^5 cells/ml. One hundred μl of the cell suspension and 100 μl of the two-fold serial dilution of the culture supernatant of PHA-stimulated mouse spleen cells were added to a 96-well flat-bottomed microtest plate. […] The IL-2 activity is expressed in U/ml as the dilution at which the absorbancy measured by MTT method was 50% of the maximum.

[3] = tested on: IL-3 production in PHA-stimulated mouse spleen cells; experiment: suppression of IL-3 production in PHA-stimulated mouse spleen cells; format: cell-based; conditions: for inhibition at 0.001 µg/mL / inhibition at 0.01 µg/mL / inhibition at 0.1 µg/mL / inhibition at 1 µg/mL: Mus musculus, 24 h, read-out: Suppression
Description: as §1, §2
The IL-3 activity was assayed as follows:
IL-3-dependent mouse cell line FDC-P2 cells were suspended in the RPMI1640 culture medium supplemented with 10% FCS to the concentration of 2×10^5 cells/ml. One hundred μl of the cell suspension and 100 μl of the two-fold serial dilution of the culture supernatant of PHA-stimulated mouse spleen cells described above were added to a 96-well flat-bottomed microtest plate. […] The IL-3 activity is expressed in U/ml as the dilution at which the absorbancy measured by MTT method was 50% of the maximum.

[4] = tested on: IL-3 production in mouse allogenic MLC; experiment: suppression of IL-3 production in mouse allogenic MLC; format: cell-based
Description: Mouse allogenic MLC was carried out as follows:
After termination of culture, the supernatant was collected and used as the supernatant of mouse allogenic MLC.

[5] = cytotoxicity to cultured tumor cell line U937; format: cell-based, human; conditions: human, u937 cells, read-out: Suppression
Description: (§3) Cytotoxicity to various human tumor cell lines was examined as follows:
(§4) Cells of human cell lines, K562, MOLT4, U937 and HL60 were respectively suspended to the concentration of 4×10^5 cells/ml in the RPMI1640 culture medium supplemented with 20% FCS. Fifty μl of each suspension was added to each well of a 96-well microtest plate to which 50 μl of the test solution had been added. After culturing the suspension at 37° C. in an atmosphere of 5% carbon dioxide for 72 hours, the absorbancy at 570 nm was measured in the same way as with the colorimetry using MTT in Experiment Example 1, and the percent suppression was calculated by the following formula, which was used as an index of cytotoxicity.

U937 = experiment: cytotoxicity to cultured tumor cell line U937; format: cell-based, human
Description: as §3, §4

[6] = cytotoxicity to cultured tumor cell line K562; conditions: human, k562 cells, Suppression
Description: as §3, §4

K562 = experiment: cytotoxicity to cultured tumor cell line K562
Description: as §3, §4

[7] = cytotoxicity to cultured tumor cell line HL60; conditions: human, hl60 cells, Suppression
Description: as §3, §4

HL60 = experiment: cytotoxicity to cultured tumor cell line HL60
Description: as §3, §4

CCCCCCCCCCCCCCCC[C@@H](O)[C@H](O)[C@@](N)(CO)C(=O)O [Example 2]
Cytotoxic activity ([1]; 0.001 μg/ml, BALB/c responder): 16.0 LU/10^6 | Cytotoxic activity ([1]; 0.01 μg/ml, BALB/c responder): 13.0 LU/10^6 | Cytotoxic activity ([1]; 0.1 μg/ml, BALB/c responder): < 1.0 LU/10^6 | Cytotoxic activity ([1]; 1 μg/ml, BALB/c responder): < 1.0 LU/10^6 | inhibition at 0.001 µg/mL ([1]; Mus musculus, T-cell, 144 h, 0.001 μg/ml, BALB/c responder): 18.4% | inhibition at 0.01 µg/mL ([1]; Mus musculus, T-cell, 144 h, 0.01 μg/ml, BALB/c responder): 33.6% | inhibition at 0.1 µg/mL ([1]; Mus musculus, T-cell, 144 h, 0.1 μg/ml, BALB/c responder): > 95% | inhibition at 1 µg/mL ([1]; Mus musculus, T-cell, 144 h, 1 μg/ml, BALB/c responder): > 95% | induction of the allo-reactive cytotoxic T cell (in words), BALB/c responder ([1]; Table 3A): markedly inhibited | IL-2 activity ([2]; 0.001 μg/ml): 12.1 U/ml | IL-2 activity ([2]; 0.01 μg/ml): 7.0 U/ml | IL-2 activity ([2]; 0.1 μg/ml): 6.1 U/ml | IL-2 activity ([2]; 1 μg/ml): 3.7 U/ml | inhibition at 0.001 µg/mL [2]: 0% | inhibition at 0.01 µg/mL [2]: 42.1% | inhibition at 0.1 µg/mL [2]: 49.6% | inhibition at 1 µg/mL [2]: 69.4% | IL-3 activity ([3]; 0.001 μg/ml): 26.0 U/ml | IL-3 activity ([3]; 0.01 μg/ml): 13.9 U/ml | IL-3 activity ([3]; 0.1 μg/ml): 11.3 U/ml | IL-3 activity ([3]; 1 μg/ml): 7.5 U/ml | inhibition at 0.001 µg/mL [3]: 29.3% | inhibition at 0.01 µg/mL [3]: 62.2% | inhibition at 0.1 µg/mL [3]: 69.3% | inhibition at 1 µg/mL [3]: 79.6% | IL-3 activity ([4]; 0.0001 μg/ml): 42.8 U/ml | IL-3 activity ([4]; 0.001 μg/ml): 45.3 U/ml | IL-3 activity ([4]; 0.01 μg/ml): 42.2 U/ml | IL-3 activity ([4]; 0.1 μg/ml): 23.6 U/ml | IL-3 activity ([4]; 1 μg/ml): 11.0 U/ml | inhibition at 0.0001 µg/mL ([4]; Mus musculus, 48 h, 0.0001 μg/ml): 16.3% | inhibition at 0.001 µg/mL ([4]; Mus musculus, 48 h, 0.001 μg/ml): 9.9% | inhibition at 0.01 µg/mL ([4]; Mus musculus, 48 h, 0.01 μg/ml): 17.9% | inhibition at 0.1 µg/mL ([4]; Mus musculus, 48 h, 0.1 μg/ml): 65.3% | inhibition at 1 µg/mL ([4]; Mus musculus, 48 h, 1 μg/ml): 97.4% | cytotoxicity at 72 h ([5]; 1 μg/ml): 0.1% | cytotoxicity at 72 h ([5]; 10 μg/ml): 1.3% | cytotoxicity at 72 h ([5]; 0.1 μg/ml): 1.9% | Absorbancy (U937; 0.1 μg/ml): 0.669 ± 0.030 | Absorbancy (U937; 1 μg/ml): 0.681 ± 0.009 | Absorbancy (U937; 10 μg/ml): 0.673 ± 0.111 | cytotoxicity at 72 h ([6]; 0.1 μg/ml): 0.7% | cytotoxicity at 72 h ([6]; 1 μg/ml): 2.9% | cytotoxicity at 72 h ([6]; 10 μg/ml): 4.4% | Absorbancy (K562; 0.1 μg/ml): 1.128 ± 0.025 | Absorbancy (K562; 1 μg/ml): 1.103 ± 0.045 | Absorbancy (K562; 10 μg/ml): 1.086 ± 0.045 | cytotoxicity at 72 h ([7]; 0.1 μg/ml): 7% | cytotoxicity at 72 h ([7]; 1 μg/ml): 1.6% | cytotoxicity at 72 h ([7]; 10 μg/ml): 3.3% | Absorbancy (HL60; 0.1 μg/ml): 1.385 ± 0.066 | Absorbancy (HL60; 1 μg/ml): 1.466 ± 0.126 | Absorbancy (HL60; 10 μg/ml): 1.441 ± 0.018

CCCCCCC(O)C=CCCCCC=CCC(O)C(O)C(N)(CO)C(=O)O (stereo not drawn) [Example 1]
IL-2 activity ([2]; 0.001 μg/ml): 13.9 U/ml | IL-2 activity ([2]; 0.01 μg/ml): 6.1 U/ml | IL-2 activity ([2]; 0.1 μg/ml): 3.7 U/ml | IL-2 activity ([2]; 1 μg/ml): 2.0 U/ml | inhibition at 0.001 µg/mL ([2]; 0.001 μg/ml): 0% | inhibition at 0.01 µg/mL ([2]; 0.01 μg/ml): 49.6% | inhibition at 0.1 µg/mL ([2]; 0.1 μg/ml): 69.4% | inhibition at 1 µg/mL ([2]; 1 μg/ml): 83.5% | IL-3 activity ([3]; 0.001 μg/ml): 34.3 U/ml | IL-3 activity ([3]; 0.01 μg/ml): 27.9 U/ml | IL-3 activity ([3]; 0.1 μg/ml): 12.2 U/ml | IL-3 activity ([3]; 1 μg/ml): 10.5 U/ml | inhibition at 0.001 µg/mL ([3]; 0.001 μg/ml): 6.8% | inhibition at 0.01 µg/mL ([3]; 0.01 μg/ml): 24.2% | inhibition at 0.1 µg/mL ([3]; 0.1 μg/ml): 66.8% | inhibition at 1 µg/mL ([3]; 1 μg/ml): 71.5%
